Measured values taken from ChEMBL document CHEMBL3991601, “The target landscape of clinical kinase drugs” (Science, 2017).
Activity calls are given as the source filed them.

Key:
[1] = target: T1, cGMP-dependent protein kinase 1 (Homo sapiens, UniProt Q13976)
T1 sequence (Q13976 whole entry): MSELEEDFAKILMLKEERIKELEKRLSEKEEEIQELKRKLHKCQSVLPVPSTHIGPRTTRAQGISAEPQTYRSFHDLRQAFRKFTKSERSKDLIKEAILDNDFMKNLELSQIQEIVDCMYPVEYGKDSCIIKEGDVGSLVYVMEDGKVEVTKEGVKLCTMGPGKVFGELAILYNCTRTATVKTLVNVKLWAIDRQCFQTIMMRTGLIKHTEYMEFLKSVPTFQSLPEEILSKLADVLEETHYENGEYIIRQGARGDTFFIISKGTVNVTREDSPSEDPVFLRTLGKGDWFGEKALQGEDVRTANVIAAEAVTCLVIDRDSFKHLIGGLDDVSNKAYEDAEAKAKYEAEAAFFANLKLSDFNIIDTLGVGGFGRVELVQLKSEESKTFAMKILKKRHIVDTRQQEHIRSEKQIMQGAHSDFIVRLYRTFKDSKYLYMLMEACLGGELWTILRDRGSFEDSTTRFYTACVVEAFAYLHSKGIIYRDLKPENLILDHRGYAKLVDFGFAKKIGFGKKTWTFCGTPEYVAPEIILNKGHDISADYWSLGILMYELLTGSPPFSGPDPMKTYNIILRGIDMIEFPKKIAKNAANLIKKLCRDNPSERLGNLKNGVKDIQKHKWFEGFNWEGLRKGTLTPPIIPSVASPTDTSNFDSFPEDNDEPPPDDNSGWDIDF

[2] = target: Dual specificity protein kinase CLK2 (Homo sapiens, UniProt P49760)
[3] = target: Insulin-like growth factor 1 receptor (Homo sapiens, UniProt P08069)
[4] = target: cAMP-dependent protein kinase catalytic subunit gamma (Homo sapiens, UniProt P22612)
[5] = target: Mitotic checkpoint serine/threonine-protein kinase BUB1 (Homo sapiens, UniProt O43683)
[6] = target: T2, Cyclin-G-associated kinase (Homo sapiens, UniProt O14976)
T2 sequence (O14976 whole entry): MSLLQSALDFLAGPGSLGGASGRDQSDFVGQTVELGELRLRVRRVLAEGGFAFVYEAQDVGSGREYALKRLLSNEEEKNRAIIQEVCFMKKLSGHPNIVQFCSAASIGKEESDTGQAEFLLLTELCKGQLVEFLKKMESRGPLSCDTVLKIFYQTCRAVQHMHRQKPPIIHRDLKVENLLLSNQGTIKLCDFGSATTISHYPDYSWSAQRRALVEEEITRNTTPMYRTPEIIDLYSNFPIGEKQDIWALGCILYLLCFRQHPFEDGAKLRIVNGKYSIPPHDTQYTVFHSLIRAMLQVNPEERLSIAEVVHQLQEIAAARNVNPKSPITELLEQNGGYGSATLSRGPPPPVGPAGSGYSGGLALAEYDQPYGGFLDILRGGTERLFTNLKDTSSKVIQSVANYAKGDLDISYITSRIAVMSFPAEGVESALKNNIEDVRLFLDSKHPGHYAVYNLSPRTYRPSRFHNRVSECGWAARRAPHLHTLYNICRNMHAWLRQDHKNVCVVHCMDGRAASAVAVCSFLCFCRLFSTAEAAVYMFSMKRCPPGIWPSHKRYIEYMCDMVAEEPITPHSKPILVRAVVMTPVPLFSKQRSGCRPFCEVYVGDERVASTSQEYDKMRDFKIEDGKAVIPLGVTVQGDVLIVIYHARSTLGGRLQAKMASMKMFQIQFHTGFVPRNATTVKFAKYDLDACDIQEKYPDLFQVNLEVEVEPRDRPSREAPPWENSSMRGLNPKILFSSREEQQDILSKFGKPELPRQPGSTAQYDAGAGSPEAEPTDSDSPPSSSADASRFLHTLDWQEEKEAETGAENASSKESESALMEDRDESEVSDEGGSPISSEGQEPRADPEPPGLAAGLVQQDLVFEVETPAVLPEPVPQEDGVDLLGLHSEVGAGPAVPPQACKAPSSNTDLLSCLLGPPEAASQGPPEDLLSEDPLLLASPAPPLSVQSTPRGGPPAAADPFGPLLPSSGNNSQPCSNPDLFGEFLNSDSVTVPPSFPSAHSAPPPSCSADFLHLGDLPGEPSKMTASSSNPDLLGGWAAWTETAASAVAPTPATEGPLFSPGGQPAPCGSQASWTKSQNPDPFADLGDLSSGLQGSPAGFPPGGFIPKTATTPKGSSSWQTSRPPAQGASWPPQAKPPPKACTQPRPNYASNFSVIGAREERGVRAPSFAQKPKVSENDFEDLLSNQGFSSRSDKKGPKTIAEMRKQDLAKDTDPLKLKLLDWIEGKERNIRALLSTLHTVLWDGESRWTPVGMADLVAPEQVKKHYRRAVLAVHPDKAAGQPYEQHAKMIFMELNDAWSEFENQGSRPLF

[7] = target: T3, Signal recognition particle receptor subunit alpha (Homo sapiens, UniProt P08240)
T3 sequence (P08240 whole entry): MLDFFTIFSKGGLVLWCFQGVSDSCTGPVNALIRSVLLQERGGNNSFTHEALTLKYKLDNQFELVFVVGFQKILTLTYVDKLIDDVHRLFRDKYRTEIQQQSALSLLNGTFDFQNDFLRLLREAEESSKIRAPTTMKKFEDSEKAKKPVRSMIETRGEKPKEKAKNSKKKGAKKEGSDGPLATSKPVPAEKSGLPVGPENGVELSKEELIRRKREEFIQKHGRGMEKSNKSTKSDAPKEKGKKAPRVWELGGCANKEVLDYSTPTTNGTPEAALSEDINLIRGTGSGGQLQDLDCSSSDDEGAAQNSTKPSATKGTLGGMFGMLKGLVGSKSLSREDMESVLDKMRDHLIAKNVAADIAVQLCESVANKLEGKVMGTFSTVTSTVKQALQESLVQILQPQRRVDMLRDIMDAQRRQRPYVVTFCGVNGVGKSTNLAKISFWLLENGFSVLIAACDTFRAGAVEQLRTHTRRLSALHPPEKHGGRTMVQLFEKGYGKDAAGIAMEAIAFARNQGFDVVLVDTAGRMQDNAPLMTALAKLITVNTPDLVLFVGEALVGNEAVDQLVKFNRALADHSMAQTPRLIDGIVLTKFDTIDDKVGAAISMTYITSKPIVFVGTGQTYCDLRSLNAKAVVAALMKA
Note: in the data inactive means no Kd found up to 30 µM.

Sequence of Mitotic checkpoint serine/threonine-protein kinase BUB1 (O43683 whole entry): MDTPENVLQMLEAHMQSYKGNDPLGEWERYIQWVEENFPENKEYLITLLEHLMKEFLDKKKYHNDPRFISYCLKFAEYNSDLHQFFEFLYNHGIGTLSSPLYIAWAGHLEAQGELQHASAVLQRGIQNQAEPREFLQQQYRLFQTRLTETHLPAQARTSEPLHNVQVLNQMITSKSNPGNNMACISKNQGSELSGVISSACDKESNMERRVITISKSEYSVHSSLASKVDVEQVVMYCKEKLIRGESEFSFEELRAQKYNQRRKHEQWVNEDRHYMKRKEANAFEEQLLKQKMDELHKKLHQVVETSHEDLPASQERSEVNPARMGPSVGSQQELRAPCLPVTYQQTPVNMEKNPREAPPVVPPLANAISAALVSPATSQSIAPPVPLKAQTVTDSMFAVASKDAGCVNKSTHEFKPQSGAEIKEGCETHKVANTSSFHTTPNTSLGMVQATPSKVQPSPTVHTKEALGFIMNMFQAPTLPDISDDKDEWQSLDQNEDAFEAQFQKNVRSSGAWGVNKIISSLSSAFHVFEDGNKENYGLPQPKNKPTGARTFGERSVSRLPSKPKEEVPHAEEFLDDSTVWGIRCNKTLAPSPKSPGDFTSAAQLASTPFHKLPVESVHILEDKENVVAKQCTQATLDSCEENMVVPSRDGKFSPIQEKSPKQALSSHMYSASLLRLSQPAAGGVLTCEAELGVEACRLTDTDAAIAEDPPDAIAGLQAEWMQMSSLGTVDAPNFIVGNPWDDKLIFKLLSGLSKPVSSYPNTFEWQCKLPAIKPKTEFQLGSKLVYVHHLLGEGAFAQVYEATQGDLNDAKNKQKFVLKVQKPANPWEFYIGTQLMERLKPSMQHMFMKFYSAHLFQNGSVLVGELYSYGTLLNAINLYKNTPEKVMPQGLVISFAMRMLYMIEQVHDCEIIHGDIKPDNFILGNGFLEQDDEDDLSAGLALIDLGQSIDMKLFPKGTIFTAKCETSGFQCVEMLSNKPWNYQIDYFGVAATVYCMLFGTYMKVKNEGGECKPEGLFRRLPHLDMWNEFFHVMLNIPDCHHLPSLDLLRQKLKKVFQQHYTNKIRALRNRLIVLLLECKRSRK
Sequence of Dual specificity protein kinase CLK2 (P49760 whole entry): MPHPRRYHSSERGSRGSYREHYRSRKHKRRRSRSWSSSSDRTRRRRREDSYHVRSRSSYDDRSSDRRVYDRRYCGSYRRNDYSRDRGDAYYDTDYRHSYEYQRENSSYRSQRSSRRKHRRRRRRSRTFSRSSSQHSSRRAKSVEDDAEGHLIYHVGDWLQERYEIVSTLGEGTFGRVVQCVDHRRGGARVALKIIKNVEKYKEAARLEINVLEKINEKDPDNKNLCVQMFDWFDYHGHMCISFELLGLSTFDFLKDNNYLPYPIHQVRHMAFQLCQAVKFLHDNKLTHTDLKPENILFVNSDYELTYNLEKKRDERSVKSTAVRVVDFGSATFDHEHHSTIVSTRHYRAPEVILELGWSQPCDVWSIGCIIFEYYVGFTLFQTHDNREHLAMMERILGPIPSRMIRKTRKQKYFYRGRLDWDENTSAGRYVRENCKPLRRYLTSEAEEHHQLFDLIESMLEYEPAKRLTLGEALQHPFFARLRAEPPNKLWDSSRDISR
Sequence of Insulin-like growth factor 1 receptor (P08069 31-736 limits assumed): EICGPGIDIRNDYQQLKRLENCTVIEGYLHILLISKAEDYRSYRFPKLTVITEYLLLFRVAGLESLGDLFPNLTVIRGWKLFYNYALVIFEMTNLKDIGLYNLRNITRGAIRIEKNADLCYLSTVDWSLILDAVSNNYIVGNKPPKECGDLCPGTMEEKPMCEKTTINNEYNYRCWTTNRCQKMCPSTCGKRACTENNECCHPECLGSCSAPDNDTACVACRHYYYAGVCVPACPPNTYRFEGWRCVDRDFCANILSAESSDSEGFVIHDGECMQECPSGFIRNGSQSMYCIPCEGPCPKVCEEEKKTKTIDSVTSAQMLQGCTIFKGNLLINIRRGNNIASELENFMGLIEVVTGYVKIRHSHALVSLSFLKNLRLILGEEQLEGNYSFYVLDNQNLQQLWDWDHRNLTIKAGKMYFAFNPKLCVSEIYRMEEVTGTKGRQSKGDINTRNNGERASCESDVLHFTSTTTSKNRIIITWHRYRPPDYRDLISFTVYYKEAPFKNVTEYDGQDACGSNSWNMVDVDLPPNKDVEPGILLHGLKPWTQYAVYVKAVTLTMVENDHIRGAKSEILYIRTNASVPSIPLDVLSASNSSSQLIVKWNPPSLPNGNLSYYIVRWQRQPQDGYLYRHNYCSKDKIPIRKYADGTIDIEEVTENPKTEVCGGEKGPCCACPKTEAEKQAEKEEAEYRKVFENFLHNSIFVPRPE
Sequence of Insulin-like growth factor 1 receptor (P08069 741-1367 limits assumed): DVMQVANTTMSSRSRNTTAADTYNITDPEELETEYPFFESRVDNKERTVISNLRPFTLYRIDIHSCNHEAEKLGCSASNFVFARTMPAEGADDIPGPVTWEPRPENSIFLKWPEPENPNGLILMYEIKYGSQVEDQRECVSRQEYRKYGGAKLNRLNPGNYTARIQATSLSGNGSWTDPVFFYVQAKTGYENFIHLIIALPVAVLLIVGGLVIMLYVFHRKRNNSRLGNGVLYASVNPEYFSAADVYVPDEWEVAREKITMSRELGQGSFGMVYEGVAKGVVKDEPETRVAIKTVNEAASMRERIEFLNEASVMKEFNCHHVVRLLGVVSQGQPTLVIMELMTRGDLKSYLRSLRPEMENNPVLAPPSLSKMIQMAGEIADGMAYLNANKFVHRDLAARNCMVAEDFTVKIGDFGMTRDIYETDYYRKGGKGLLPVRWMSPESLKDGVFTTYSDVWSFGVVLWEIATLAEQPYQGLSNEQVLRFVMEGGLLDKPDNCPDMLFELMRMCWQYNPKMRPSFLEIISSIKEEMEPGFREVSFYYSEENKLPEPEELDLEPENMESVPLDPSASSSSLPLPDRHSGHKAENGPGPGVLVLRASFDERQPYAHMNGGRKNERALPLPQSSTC
Sequence of cAMP-dependent protein kinase catalytic subunit gamma (P22612 whole entry): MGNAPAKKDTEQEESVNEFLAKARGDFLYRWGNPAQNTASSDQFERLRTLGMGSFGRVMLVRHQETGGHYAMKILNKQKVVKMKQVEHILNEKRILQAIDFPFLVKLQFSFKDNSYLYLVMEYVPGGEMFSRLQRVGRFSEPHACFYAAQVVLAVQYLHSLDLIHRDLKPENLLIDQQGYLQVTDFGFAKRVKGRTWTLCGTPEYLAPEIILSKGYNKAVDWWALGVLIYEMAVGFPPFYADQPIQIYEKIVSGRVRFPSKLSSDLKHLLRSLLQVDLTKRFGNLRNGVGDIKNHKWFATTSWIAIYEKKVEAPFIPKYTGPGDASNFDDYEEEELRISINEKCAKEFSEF

Row | Compound | Kd [1] | Kd [2] | Kd [3] | Kd [4] | Kd [5] | Kd [6] | Kd [7]
1 | CO[C@H]1C[C@@H]2CC[C@@H](C)[C@@](O)(O2)C(=O)C(=O)N2CCCC[C@H]2C(=O)O[C@H]([C@H](C)C[C@@H]2CC[C@@H](OP(C)(C)=O)[C@H](OC)C2)CC(=O)[C@H](C)/C=C(\C)[C@@H](O)[C@@H](OC)C(=O)[C@H](C)C[C@H](C)/C=C/C=C/C=C/1C [RIDAFOROLIMUS] | > 30 µM (inactive) | > 30 µM (inactive) | > 30 µM (inactive) | > 30 µM (inactive) | > 30 µM (inactive) | > 30 µM (inactive) | > 30 µM (inactive)
2 | O=c1[nH]ccc2cc(OC3CCNCC3)ccc12 [SAR-407899 FREE BASE] | 0.004 µM | > 30 µM (inactive) | > 30 µM (inactive) | > 30 µM (inactive) | > 30 µM (inactive) | > 30 µM (inactive) | > 30 µM (inactive)
3 | Cn1cc(-c2cnn3c(N)c(Br)c([C@@H]4CCCNC4)nc23)cn1 [SCH-900776] | > 30 µM (inactive) | > 30 µM (inactive) | > 30 µM (inactive) | > 30 µM (inactive) | > 30 µM (inactive) | > 30 µM (inactive) | > 30 µM (inactive)
4 | CO[C@H]1C[C@@H]2CC[C@@H](C)[C@@](O)(O2)C(=O)C(=O)N2CCCC[C@H]2C(=O)O[C@H]([C@H](C)C[C@@H]2CC[C@@H](OC(=O)C(C)(CO)CO)[C@H](OC)C2)CC(=O)[C@H](C)/C=C(\C)[C@@H](O)[C@@H](OC)C(=O)[C@H](C)C[C@H](C)/C=C/C=C/C=C/1C [TEMSIROLIMUS] | > 30 µM (inactive) | > 30 µM (inactive) | > 30 µM (inactive) | > 30 µM (inactive) | > 30 µM (inactive) | > 30 µM (inactive) | > 30 µM (inactive)

The next lines start with the values.

Row | Kd [1] | Kd [2] | Kd [3] | Kd [4] | Kd [5] | Kd [6] | Kd [7] | Compound
5 | > 30 µM (inactive) | > 30 µM (inactive) | > 30 µM (inactive) | > 30 µM (inactive) | > 30 µM (inactive) | > 30 µM (inactive) | > 30 µM (inactive) | Cc1cnc(NC(=O)Nc2cc(Br)c(C)cc2OC[C@@H]2CNCCO2)cn1 [RABUSERTIB]
6 | > 30 µM (inactive) | > 30 µM (inactive) | > 30 µM (inactive) | > 30 µM (inactive) | > 30 µM (inactive) | > 30 µM (inactive) | > 30 µM (inactive) | Cn1ncc(Cl)c1-c1cc(C(=O)N[C@H](CN)Cc2ccc(F)c(F)c2)oc1Cl [UPROSERTIB]
